Laboratory results from ChEMBL document CHEMBL6103607, “Novel Heterocyclic Piperazine Amide Derivatives as Alpha-synuclein PET Ligands for Diagnosis of Parkinson's Disease” (ACS Med Chem Lett, 2025).

What follows are molecules tested against Amyloid-beta precursor protein (Homo sapiens, UniProt P05067) (assay: Displacement of [3H]-105 from amyloid-beta (unknown origin) in human brain homogenate assessed as inhibition constant incubated for 90 mins by radioligand binding assay).
Assay type: tissue-based

Sequence of Amyloid-beta precursor protein (P05067 whole entry): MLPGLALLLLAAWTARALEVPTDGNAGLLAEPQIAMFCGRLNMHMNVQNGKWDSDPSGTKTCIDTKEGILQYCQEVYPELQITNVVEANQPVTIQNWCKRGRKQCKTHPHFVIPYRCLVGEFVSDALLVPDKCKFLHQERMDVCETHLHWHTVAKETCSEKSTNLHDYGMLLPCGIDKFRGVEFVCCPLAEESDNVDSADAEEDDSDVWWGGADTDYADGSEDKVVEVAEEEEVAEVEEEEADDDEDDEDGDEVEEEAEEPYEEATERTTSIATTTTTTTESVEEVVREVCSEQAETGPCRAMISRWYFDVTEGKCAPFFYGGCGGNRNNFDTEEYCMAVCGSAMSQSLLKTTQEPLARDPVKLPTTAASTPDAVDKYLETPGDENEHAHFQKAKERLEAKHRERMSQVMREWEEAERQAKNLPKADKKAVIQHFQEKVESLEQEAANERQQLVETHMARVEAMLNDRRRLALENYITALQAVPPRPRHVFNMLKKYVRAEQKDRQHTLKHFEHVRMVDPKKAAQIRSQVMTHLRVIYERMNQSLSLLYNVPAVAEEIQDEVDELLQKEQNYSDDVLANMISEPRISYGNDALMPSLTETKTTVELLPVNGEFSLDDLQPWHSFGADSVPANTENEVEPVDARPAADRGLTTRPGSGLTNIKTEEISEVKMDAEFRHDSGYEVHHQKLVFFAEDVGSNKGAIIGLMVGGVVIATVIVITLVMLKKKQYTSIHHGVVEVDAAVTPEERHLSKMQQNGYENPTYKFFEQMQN

Row | SMILES | Ki
1 | C[C@H]1CN(c2ccccn2)CCN1c1ncc(NC(=O)c2ccc(-n3cccn3)nc2)cn1 | 10.8 µM
2 | C[C@H]1CN(c2cc([N+](=O)[O-])ccn2)CCN1c1ncc(NC(=O)c2ccc(N3CC(F)(F)C3)nc2)cn1 | 12 µM
3 | C[C@H]1CN(c2ccc(F)cn2)CCN1c1ncc(NC(=O)c2ccc(N3CCC3)nc2)cn1 | 12 µM
4 | Cc1ccc(N2C[C@@H](C)N(c3ncc(NC(=O)c4ccc(-c5cncc(F)c5)nc4)cn3)[C@@H](C)C2)nc1 | 12 µM

Continued, values first:

Row | Ki | SMILES
5 | 12 µM | C[C@H]1CN(c2ccc(F)cn2)CCN1c1ncc(NC(=O)c2ccc(N3CC[C@@H](F)C3)nc2)cn1
6 | 10.8 µM | Cc1cocc1-c1ccc(C(=O)Nc2cnc(N3CCN(c4ccccn4)C[C@@H]3C)nc2)cn1
7 | 12 µM | COC[C@H]1CN(c2ccccn2)CCN1c1ncc(NC(=O)c2ccc(-n3cccn3)nc2)cn1
8 | 12 µM | C[C@H]1CN(c2ccc(F)cn2)CCN1c1ncc(NC(=O)c2ccc(N3CC(F)C3)nc2)cn1
